Measurements reported in PubChem BioAssay AID1963440 (Molecular Pharmacology Branch, DTP, NCI, 2024).
Each block holds one compound with its values, some of them ahead of it.

Test system: NCI-H1417 complex spheroids, growth % test/control
Test: Anticancer human tumor NCI-H1417 cell line growth inhibition [Asc];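 note: spheroids exposed to compounds for 7 days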;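 for viability, T/C: 100% = DMSO vehicle control wells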
Details: for IC50: curve of first compound; for viability, T/C: stronger effect = lower value
How it was run: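 Stromal components (HUVEC and hMSC) are co-assembled with the cancer cells into multicellular spheroids. Drugs are then added singly or paired, at concentrations falling by half-log increments from a clinically achievable maximum, capped at 10 microM without known Cmax.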

[1] = second compound 0.1 µM, first compound 0.00316 µM
[2] = second compound 0.1 µM, first compound 0.01 µM
[3] = second compound 0.1 µM, first compound 0.0316 µM
[4] = second compound 0.1 µM, first compound 0.1 µM
[5] = second compound 0.1 µM, first compound 0.316 µM
[6] = second compound 0.1 µM, first compound 1 µM
[7] = second compound 0.316 µM, first compound 0.00316 µM
[8] = second compound 0.316 µM, first compound 0.01 µM
[9] = second compound 0.316 µM, first compound 0.0316 µM
[10] = second compound 0.316 µM, first compound 0.1 µM
[11] = second compound 0.316 µM, first compound 0.316 µM
[12] = second compound 0.316 µM, first compound 1 µM
[13] = second compound 1 µM, first compound 0.00316 µM
[14] = second compound 1 µM, first compound 0.01 µM
[15] = second compound 1 µM, first compound 0.0316 µM
[16] = second compound 1 µM, first compound 0.1 µM
[17] = second compound 1 µM, first compound 0.316 µM
[18] = second compound 1 µM, first compound 1 µM
[19] = second compound 3.16 µM, first compound 0.00316 µM
[20] = second compound 3.16 µM, first compound 0.01 µM
[21] = second compound 3.16 µM, first compound 0.0316 µM
[22] = second compound 3.16 µM, first compound 0.1 µM
[23] = second compound 3.16 µM, first compound 0.316 µM
[24] = second compound 3.16 µM, first compound 1 µM
[25] = second compound 10 µM, first compound 0.00316 µM
[26] = second compound 10 µM, first compound 0.01 µM
[27] = second compound 10 µM, first compound 0.0316 µM
[28] = second compound 10 µM, first compound 0.1 µM
[29] = second compound 10 µM, first compound 0.316 µM
[30] = second compound 10 µM, first compound 1 µM

SMILES: NC(=O)C(=Cn1cnc(-c2cc(C(F)(F)F)cc(C(F)(F)F)c2)n1)c1cncnc1 + Cc1c(S(C)(=O)=O)c(-c2cc(F)cc(N3CCN(c4ccc(NS(=O)(=O)c5ccc(NC(CCN6CCC(C(=O)OCCCP(=O)(O)O)CC6)CSc6ccccc6)c(S(=O)(=O)C(F)(F)F)c5)cc4)CC3)c2)c(-c2ccc(Cl)cc2)n1C(C)C
- IC50 (second compound 0.1 µM): 11.1 nM
- IC50 (second compound 0.316 µM): < 0.949 nM
- IC50 (second compound 1 µM): < 0.949 nM
- IC50 (second compound 3.16 µM): < 0.949 nM
- IC50 (second compound 10 µM): < 0.949 nM
- viability, T/C (second compound 0.1 µM, first compound 0.000949 µM): 75.4%
- viability, T/C (second compound 0.1 µM, first compound 0.003 µM): 77.7%
- viability, T/C (second compound 0.1 µM, first compound 0.00949 µM): 51.9%
- viability, T/C (second compound 0.1 µM, first compound 0.03 µM): 24.1%
- viability, T/C (second compound 0.1 µM, first compound 0.0949 µM): 8.22%
- viability, T/C (second compound 0.1 µM, first compound 0.3 µM): 3.52%
- viability, T/C (second compound 0.316 µM, first compound 0.000949 µM): 38.6%
- viability, T/C (second compound 0.316 µM, first compound 0.003 µM): 29.7%
- viability, T/C (second compound 0.316 µM, first compound 0.00949 µM): 20.7%
- viability, T/C (second compound 0.316 µM, first compound 0.03 µM): 10.5%
- viability, T/C (second compound 0.316 µM, first compound 0.0949 µM): 3.84%
- viability, T/C (second compound 0.316 µM, first compound 0.3 µM): 1.35%
- viability, T/C (second compound 1 µM, first compound 0.000949 µM): 8.75%
- viability, T/C (second compound 1 µM, first compound 0.003 µM): 8.33%
- viability, T/C (second compound 1 µM, first compound 0.00949 µM): 5.84%
- viability, T/C (second compound 1 µM, first compound 0.03 µM): 3.45%
- viability, T/C (second compound 1 µM, first compound 0.0949 µM): 1.82%
- viability, T/C (second compound 1 µM, first compound 0.3 µM): 0.83%
- viability, T/C (second compound 3.16 µM, first compound 0.000949 µM): 2.8%
- viability, T/C (second compound 3.16 µM, first compound 0.003 µM): 2.41%
- viability, T/C (second compound 3.16 µM, first compound 0.00949 µM): 2.15%
- viability, T/C (second compound 3.16 µM, first compound 0.03 µM): 2.26%
- viability, T/C (second compound 3.16 µM, first compound 0.0949 µM): 1.59%
- viability, T/C (second compound 3.16 µM, first compound 0.3 µM): 0.92%
- viability, T/C (second compound 10 µM, first compound 0.000949 µM): 2.33%
- viability, T/C (second compound 10 µM, first compound 0.003 µM): 1.83%
- viability, T/C (second compound 10 µM, first compound 0.00949 µM): 2.16%
- viability, T/C (second compound 10 µM, first compound 0.03 µM): 2.37%
- viability, T/C (second compound 10 µM, first compound 0.0949 µM): 1.29%
- viability, T/C (second compound 10 µM, first compound 0.3 µM): 0.5%

SMILES: NC1CCC(NC2CC2c2ccccc2)CC1 (stereo not given) + Cc1c(S(C)(=O)=O)c(-c2cc(F)cc(N3CCN(c4ccc(NS(=O)(=O)c5ccc(NC(CCN6CCC(C(=O)OCCCP(=O)(O)O)CC6)CSc6ccccc6)c(S(=O)(=O)C(F)(F)F)c5)cc4)CC3)c2)c(-c2ccc(Cl)cc2)n1C(C)C
- IC50 (second compound 0.1 µM): > 100 nM
- IC50 (second compound 0.316 µM): < 0.316 nM
- IC50 (second compound 1 µM): < 0.316 nM
- IC50 (second compound 3.16 µM): < 0.316 nM
- IC50 (second compound 10 µM): < 0.316 nM
- viability, T/C (second compound 0.1 µM, first compound 0.000316 µM): 66.5%
- viability, T/C (second compound 0.1 µM, first compound 0.001 µM): 69%
- viability, T/C [1]: 61.8%
- viability, T/C [2]: 65.1%
- viability, T/C [3]: 65.7%
- viability, T/C [4]: 64.3%
- viability, T/C (second compound 0.316 µM, first compound 0.000316 µM): 45.1%
- viability, T/C (second compound 0.316 µM, first compound 0.001 µM): 43.2%
- viability, T/C [7]: 34.7%
- viability, T/C [8]: 40.1%
- viability, T/C [9]: 38.8%
- viability, T/C [10]: 38.8%
- viability, T/C (second compound 1 µM, first compound 0.000316 µM): 12.5%
- viability, T/C (second compound 1 µM, first compound 0.001 µM): 14.6%
- viability, T/C [13]: 16.3%
- viability, T/C [14]: 11.2%
- viability, T/C [15]: 16.2%
- viability, T/C [16]: 15.7%
- viability, T/C (second compound 3.16 µM, first compound 0.000316 µM): 1.88%
- viability, T/C (second compound 3.16 µM, first compound 0.001 µM): 1.85%
- viability, T/C [19]: 2.09%
- viability, T/C [20]: 1.09%
- viability, T/C [21]: 1.14%
- viability, T/C [22]: 2.64%
- viability, T/C (second compound 10 µM, first compound 0.000316 µM): 1.53%
- viability, T/C (second compound 10 µM, first compound 0.001 µM): 1.86%
- viability, T/C [25]: 1.9%
- viability, T/C [26]: 1.64%
- viability, T/C [27]: 2.09%
- viability, T/C [28]: 1.63%

Now from value to compound, other results behind:

- IC50 (second compound 0.1 µM): > 1000 nM
- IC50 (second compound 0.316 µM): < 3.16 nM
- IC50 (second compound 1 µM): < 3.16 nM
- IC50 (second compound 3.16 µM): < 3.16 nM
- IC50 (second compound 10 µM): < 3.16 nM
SMILES: CCN1CCN(Cc2ccc(Nc3ncc(F)c(-c4cc(F)c5nc(C)n(C(C)C)c5c4)n3)nc2)CC1 + Cc1c(S(C)(=O)=O)c(-c2cc(F)cc(N3CCN(c4ccc(NS(=O)(=O)c5ccc(NC(CCN6CCC(C(=O)OCCCP(=O)(O)O)CC6)CSc6ccccc6)c(S(=O)(=O)C(F)(F)F)c5)cc4)CC3)c2)c(-c2ccc(Cl)cc2)n1C(C)C
- viability, T/C [1]: 88.6%
- viability, T/C [2]: 83.6%
- viability, T/C [3]: 82.2%
- viability, T/C [4]: 69.5%
- viability, T/C [5]: 66.6%
- viability, T/C [6]: 58.1%
- viability, T/C [7]: 47.8%
- viability, T/C [8]: 45.8%
- viability, T/C [9]: 44.7%
- viability, T/C [10]: 28.9%
- viability, T/C [11]: 24%
- viability, T/C [12]: 21%
- viability, T/C [13]: 14.4%
- viability, T/C [14]: 12%
- viability, T/C [15]: 10.6%
- viability, T/C [16]: 7.35%
- viability, T/C [17]: 6.95%
- viability, T/C [18]: 2.98%
- viability, T/C [19]: 2.92%
- viability, T/C [20]: 2.69%
- viability, T/C [21]: 2.77%
- viability, T/C [22]: 2.85%
- viability, T/C [23]: 2.68%
- viability, T/C [24]: 3.02%
- viability, T/C [25]: 2.2%
- viability, T/C [26]: 2.36%
- viability, T/C [27]: 2.21%
- viability, T/C [28]: 1.72%
- viability, T/C [29]: 2.26%
- viability, T/C [30]: 2.79%

- IC50 (second compound 0.1 µM): 87.7 nM
- IC50 (second compound 0.316 µM): < 3.16 nM
- IC50 (second compound 1 µM): < 3.16 nM
- IC50 (second compound 3.16 µM): < 3.16 nM
- IC50 (second compound 10 µM): < 3.16 nM
SMILES: COc1c(OCCCN2CCOCC2)ccc2c3n(c(=NC(=O)c4cnc(N)nc4)nc12)CCN3 + Cc1c(S(C)(=O)=O)c(-c2cc(F)cc(N3CCN(c4ccc(NS(=O)(=O)c5ccc(NC(CCN6CCC(C(=O)OCCCP(=O)(O)O)CC6)CSc6ccccc6)c(S(=O)(=O)C(F)(F)F)c5)cc4)CC3)c2)c(-c2ccc(Cl)cc2)n1C(C)C
- viability, T/C [1]: 79.6%
- viability, T/C [2]: 80.2%
- viability, T/C [3]: 60.5%
- viability, T/C [4]: 45.7%
- viability, T/C [5]: 34.8%
- viability, T/C [6]: 14.1%
- viability, T/C [7]: 46.7%
- viability, T/C [8]: 43%
- viability, T/C [9]: 24.1%
- viability, T/C [10]: 12.7%
- viability, T/C [11]: 10.1%
- viability, T/C [12]: 3.24%
- viability, T/C [13]: 14.9%
- viability, T/C [14]: 9.99%
- viability, T/C [15]: 8.47%
- viability, T/C [16]: 2.77%
- viability, T/C [17]: 1.93%
- viability, T/C [18]: 0.85%
- viability, T/C [19]: 2.73%
- viability, T/C [20]: 2.65%
- viability, T/C [21]: 1.29%
- viability, T/C [22]: 0.44%
- viability, T/C [23]: 0.22%
- viability, T/C [24]: 0.21%
- viability, T/C [25]: 2.03%
- viability, T/C [26]: 1.93%
- viability, T/C [27]: 1.06%
- viability, T/C [28]: 0.31%
- viability, T/C [29]: 0.21%
- viability, T/C [30]: 0.23%

- IC50 (second compound 0.1 µM): > 1000 nM
- IC50 (second compound 0.316 µM): < 3.16 nM
- IC50 (second compound 1 µM): < 3.16 nM
- IC50 (second compound 3.16 µM): < 3.16 nM
- IC50 (second compound 10 µM): < 3.16 nM
SMILES: O=C(c1ccc(F)c(F)c1Nc1ccc(I)cc1F)N1CC(O)([C@@H]2CCCCN2)C1 + Cc1c(S(C)(=O)=O)c(-c2cc(F)cc(N3CCN(c4ccc(NS(=O)(=O)c5ccc(NC(CCN6CCC(C(=O)OCCCP(=O)(O)O)CC6)CSc6ccccc6)c(S(=O)(=O)C(F)(F)F)c5)cc4)CC3)c2)c(-c2ccc(Cl)cc2)n1C(C)C
- viability, T/C [1]: 84.2%
- viability, T/C [2]: 81.2%
- viability, T/C [3]: 80.8%
- viability, T/C [4]: 83.7%
- viability, T/C [5]: 71.5%
- viability, T/C [6]: 59.1%
- viability, T/C [7]: 46.5%
- viability, T/C [8]: 50.1%
- viability, T/C [9]: 44.7%
- viability, T/C [10]: 37.9%
- viability, T/C [11]: 28.8%
- viability, T/C [12]: 33.4%
- viability, T/C [13]: 13.9%
- viability, T/C [14]: 11.9%
- viability, T/C [15]: 10.4%
- viability, T/C [16]: 5.1%
- viability, T/C [17]: 2.22%
- viability, T/C [18]: 2.04%
- viability, T/C [19]: 2.87%
- viability, T/C [20]: 2.41%
- viability, T/C [21]: 2.22%
- viability, T/C [22]: 0.97%
- viability, T/C [23]: 0.48%
- viability, T/C [24]: 0.27%
- viability, T/C [25]: 2.15%
- viability, T/C [26]: 1.85%
- viability, T/C [27]: 1.55%
- viability, T/C [28]: 0.9%
- viability, T/C [29]: 1.3%
- viability, T/C [30]: 0.32%
